The record followed here is ChEMBL document CHEMBL3124777, “Synthesis and biological evaluation of thiazoline derivatives as new antimicrobial and anticancer agents” (Eur J Med Chem, 2014).

Values after ≈ are worked out from the molar mass of the structure shown.

The subject of one experiment is NIH3T3. The experiment can be described thus: Cytotoxicity against mouse NIH/3T3 cells after 24 hrs by MTT assay. The class given is cell-based. Particulars: NIH3T3, 24 h. In general terms: Tetrazolium assays rely on reduction of a dye to a coloured formazan, in cell work by metabolically active cells.
In the next experiment the test system is Candida albicans. The experiment can be described thus: Antimicrobial activity against Candida albicans ATCC 22019 after 18 to 24 hrs by microbroth dilution method. The class given is functional. (Dilution methods test growth across graded concentrations, often in twofold steps.)
The next experiment concerns Fusarium culmorum. The experiment can be described thus: Antimicrobial activity against wild type Fusarium culmorum after 48 to 72 hrs by microbroth dilution method. The class given is functional.
In another experiment the test system is Fusarium verticillioides. Nature of the experiment: Antimicrobial activity against Fusarium moniliforme NRRL 1866 after 48 to 72 hrs by microbroth dilution method. Type of experiment: functional.
A further experiment relates to Fusarium solani. Nature of the experiment: Antimicrobial activity against Fusarium solani NRRL 13414 after 48 to 72 hrs by microbroth dilution method. The class given is functional.
The test system of a further experiment is Aspergillus ochraceus. Nature of the experiment: Antimicrobial activity against Aspergillus ochraceus NRRL 3174 after 48 to 72 hrs by microbroth dilution method. The class given is functional.
The subject of another experiment is Trichoderma harzianum. The experiment can be described thus: Antimicrobial activity against Trichoderma harzianum NRRL 20565 after 48 to 72 hrs by microbroth dilution method. Type of experiment: functional.
For a further experiment, the system named is Penicillium chrysogenum. Nature of the experiment: Antimicrobial activity against Penicillium chrysogenum NRRL 1951 after 48 to 72 hrs by microbroth dilution method. Type of experiment: functional.
In a further experiment the test system is Aspergillus parasiticus. Nature of the experiment: Antimicrobial activity against Aspergillus parasiticus NRRL 465 after 48 to 72 hrs by microbroth dilution method. The class given is functional.
For a further experiment, the system named is Bacillus subtilis. The experiment can be described thus: Antimicrobial activity against Bacillus subtilis NRS-744 after 18 to 24 hrs by microbroth dilution method. Type of experiment: functional.
The next experiment has as its system Micrococcus luteus. The experiment can be described thus: Antimicrobial activity against Micrococcus luteus NRLL B-4375 after 18 to 24 hrs by microbroth dilution method. Type of experiment: functional.
A further experiment has as its system Pseudomonas aeruginosa. Nature of the experiment: Antimicrobial activity against Pseudomonas aeruginosa […] after 18 to 24 hrs by microbroth dilution method. Type of experiment: functional.
The subject of the next experiment is Escherichia coli. The experiment can be described thus: Antimicrobial activity against Escherichia coli ATCC 25922 after 18 to 24 hrs by microbroth dilution method. The class given is functional.
The subject of a further experiment is Listeria monocytogenes. Nature of the experiment: Antimicrobial activity against Listeria monocytogenes ATCC 7644 after 18 to 24 hrs by microbroth dilution method. The class given is functional.
A further experiment concerns Staphylococcus aureus. Nature of the experiment: Antimicrobial activity against Staphylococcus aureus NRRL B-767 after 18 to 24 hrs by microbroth dilution method. Type of experiment: functional.

By IC50 is commonly meant the concentration that inhibits the measured activity by half. One may read the MIC as the lowest concentration found to suppress growth. Regarding `Cc1nnc(SCC(=O)N/N=c2/scc(-c3ccc(Br)cc3)n2-c2ccccc2)s1`, the IC50 with NIH3T3 was 55 µg/mL (≈ 106 µM). For the same compound, the MIC against Candida albicans worked out at 250 µg/mL (≈ 482 µM); with Fusarium culmorum, 250 µg/mL (≈ 482 µM); in the experiment on Fusarium verticillioides it was 250 µg/mL (≈ 482 µM); in the experiment with Fusarium solani, 250 µg/mL (≈ 482 µM); with Aspergillus ochraceus, 250 µg/mL (≈ 482 µM); against Trichoderma harzianum it was 125 µg/mL (≈ 241 µM). The MIC came to 250 µg/mL (≈ 482 µM) with Penicillium chrysogenum; 250 µg/mL (≈ 482 µM) in the experiment with Aspergillus parasiticus; 500 µg/mL (≈ 964 µM) in the experiment on Bacillus subtilis; 250 µg/mL (≈ 482 µM) in the experiment with Micrococcus luteus; 250 µg/mL (≈ 482 µM) in the experiment on Pseudomonas aeruginosa; 250 µg/mL (≈ 482 µM) with Escherichia coli. Also, the MIC in the experiment with Listeria monocytogenes was 250 µg/mL (≈ 482 µM); in the experiment with Staphylococcus aureus, 500 µg/mL (≈ 964 µM).
Consider `COc1ccc(-c2cs/c(=N/NC(=O)CSc3nnnn3C)n2-c2ccccc2)cc1`, for which the IC50 in the experiment with NIH3T3 turned out to be 45 µg/mL (≈ 99.2 µM). The MIC with Candida albicans, in the experiment with Fusarium culmorum, in the experiment on Fusarium verticillioides, in the experiment with Fusarium solani, in the experiment on Aspergillus ochraceus and with Trichoderma harzianum was 250 µg/mL (≈ 551 µM) throughout. Moreover, the MIC came to 250 µg/mL (≈ 551 µM) with Penicillium chrysogenum; 250 µg/mL (≈ 551 µM) in the experiment with Aspergillus parasiticus; 250 µg/mL (≈ 551 µM) with Bacillus subtilis; 250 µg/mL (≈ 551 µM) in the experiment on Micrococcus luteus; 250 µg/mL (≈ 551 µM) against Pseudomonas aeruginosa; 500 µg/mL (≈ 1100 µM) against Escherichia coli. The MIC in the experiment on Listeria monocytogenes and with Staphylococcus aureus was 250 µg/mL (≈ 551 µM) in each case.
With `O=C(CSc1nnnn1-c1ccccc1)N/N=c1/scc(-c2ccc([N+](=O)[O-])cc2)n1-c1ccccc1`, half-maximal inhibition in the experiment on NIH3T3 (IC50) was put at 14.3 µg/mL (≈ 27 µM). Also, the MIC against Candida albicans was 250 µg/mL (≈ 471 µM); against Fusarium culmorum it was 250 µg/mL (≈ 471 µM); against Fusarium verticillioides, 250 µg/mL (≈ 471 µM); against Fusarium solani, 250 µg/mL (≈ 471 µM); in the experiment with Aspergillus ochraceus, 250 µg/mL (≈ 471 µM); against Trichoderma harzianum it was 125 µg/mL (≈ 236 µM). In addition, the MIC was 250 µg/mL (≈ 471 µM) against Penicillium chrysogenum; 250 µg/mL (≈ 471 µM) against Aspergillus parasiticus; 250 µg/mL (≈ 471 µM) in the experiment with Bacillus subtilis; 500 µg/mL (≈ 942 µM) against Micrococcus luteus; 250 µg/mL (≈ 471 µM) in the experiment with Pseudomonas aeruginosa; 250 µg/mL (≈ 471 µM) in the experiment on Escherichia coli. For the same compound, the MIC against Listeria monocytogenes and against Staphylococcus aureus was 250 µg/mL (≈ 471 µM) throughout.
Consider `N#Cc1ccc(-c2cs/c(=N/NC(=O)CSc3ncccn3)n2-c2ccccc2)cc1`, for which the IC50 in the experiment with NIH3T3 is < 3.9 µg/mL. Besides, the MIC with Candida albicans, with Fusarium culmorum, in the experiment with Fusarium verticillioides, with Fusarium solani, against Aspergillus ochraceus and against Trichoderma harzianum was 250 µg/mL (≈ 562 µM) throughout. Further, the MIC in the experiment with Penicillium chrysogenum amounted to 250 µg/mL (≈ 562 µM); against Aspergillus parasiticus it was 250 µg/mL (≈ 562 µM); in the experiment with Bacillus subtilis, 250 µg/mL (≈ 562 µM); in the experiment on Micrococcus luteus it was 250 µg/mL (≈ 562 µM); against Pseudomonas aeruginosa, 125 µg/mL (≈ 281 µM); against Escherichia coli, 250 µg/mL (≈ 562 µM). The MIC in the experiment with Listeria monocytogenes and against Staphylococcus aureus was 250 µg/mL (≈ 562 µM) in each case.
In the experiment on NIH3T3, `Cn1nnnc1SCC(=O)N/N=c1/scc(-c2ccc(Cl)cc2)n1-c1ccccc1` registered an IC50 of 40 µg/mL (≈ 87.3 µM). The MIC in the experiment on Candida albicans, against Fusarium culmorum, with Fusarium verticillioides, against Fusarium solani, in the experiment with Aspergillus ochraceus and against Trichoderma harzianum was 250 µg/mL (≈ 546 µM) throughout. For the same compound, the MIC in the experiment on Penicillium chrysogenum, in the experiment with Aspergillus parasiticus, against Bacillus subtilis, against Micrococcus luteus, in the experiment on Pseudomonas aeruginosa and in the experiment on Escherichia coli was 250 µg/mL (≈ 546 µM) throughout. Also, the MIC in the experiment on Listeria monocytogenes was determined as 250 µg/mL (≈ 546 µM); in the experiment on Staphylococcus aureus, 500 µg/mL (≈ 1090 µM).
For the compound `O=C(CSc1ncccn1)N/N=c1/scc(-c2ccccc2)n1-c1ccccc1`, it took 107 µg/mL (≈ 254 µM) to reach half-maximal inhibition in the experiment with NIH3T3 (IC50). In addition, the MIC against Candida albicans, against Fusarium culmorum, with Fusarium verticillioides, with Fusarium solani, against Aspergillus ochraceus and against Trichoderma harzianum was 250 µg/mL (≈ 596 µM) each time. For the same compound, the MIC against Penicillium chrysogenum came to 250 µg/mL (≈ 596 µM); in the experiment on Aspergillus parasiticus it was 250 µg/mL (≈ 596 µM); with Bacillus subtilis it was 500 µg/mL (≈ 1190 µM); against Micrococcus luteus, 250 µg/mL (≈ 596 µM); against Pseudomonas aeruginosa, 250 µg/mL (≈ 596 µM); in the experiment with Escherichia coli, 250 µg/mL (≈ 596 µM). Further, the MIC in the experiment with Listeria monocytogenes and in the experiment on Staphylococcus aureus was 250 µg/mL (≈ 596 µM) throughout.
Regarding `Cn1nnnc1SCC(=O)N/N=c1/scc(-c2ccc(Br)cc2)n1-c1ccccc1`, it took 19.3 µg/mL (≈ 38.4 µM) to reach half-maximal inhibition with NIH3T3 (IC50). Besides, the MIC in the experiment with Candida albicans came to 250 µg/mL (≈ 498 µM); against Fusarium culmorum, 125 µg/mL (≈ 249 µM); in the experiment with Fusarium verticillioides it was 250 µg/mL (≈ 498 µM); with Fusarium solani it was 250 µg/mL (≈ 498 µM); against Aspergillus ochraceus it was 250 µg/mL (≈ 498 µM); in the experiment on Trichoderma harzianum it was 125 µg/mL (≈ 249 µM). The MIC against Penicillium chrysogenum stood at 250 µg/mL (≈ 498 µM); with Aspergillus parasiticus, 250 µg/mL (≈ 498 µM); with Bacillus subtilis, 250 µg/mL (≈ 498 µM); against Micrococcus luteus it was 125 µg/mL (≈ 249 µM); in the experiment with Pseudomonas aeruginosa it was 250 µg/mL (≈ 498 µM); against Escherichia coli, 250 µg/mL (≈ 498 µM). Besides, the MIC in the experiment with Listeria monocytogenes and against Staphylococcus aureus was 250 µg/mL (≈ 498 µM) in each case.
On to `CC(=O)N1CCN(c2ccc(OCC3COC(Cn4ccnc4)(c4ccc(Cl)cc4Cl)O3)cc2)CC1` (stereo not drawn) [KETOCONAZOLE], for which the MIC against Candida albicans worked out at 250 µg/mL (≈ 470 µM); in the experiment with Fusarium culmorum, 500 µg/mL (≈ 941 µM); against Fusarium verticillioides, 500 µg/mL (≈ 941 µM); in the experiment with Fusarium solani, 500 µg/mL (≈ 941 µM); against Aspergillus ochraceus, 250 µg/mL (≈ 470 µM); with Trichoderma harzianum, 250 µg/mL (≈ 470 µM). Besides, the MIC in the experiment with Penicillium chrysogenum came out at 7.8 µg/mL (≈ 14.7 µM); in the experiment on Aspergillus parasiticus it was 125 µg/mL (≈ 235 µM).
